Reference: patent US6818215B2, “Antibodies to senescent cell-derived inhibiters of DNA synthesis” (priority 1991, dated 2004)

Experiments:
[1] = tested on: hamster dihydrofolate reductase (DHFR) promoter; assay: CAT reporter transcription assay, DHFR-CAT; format: cell-based
Experimental: (§1) The effect of the human SDI-1 on transcription driven by two E2F-responsive promoters was determined. Proliferating A31 cells were transfected with an SDI-1 expression vector in which the SDI-1 cDNA was driven by the strong constitutive cytomegalovirus early promoter (CMV) together with a reporter vector in which the chloramphenicol acetyltransferase (CAT) gene was driven by either the hamster dihydrofolate reductase (DHFR) promoter or the human cdc2 promoter (cdc2-CAT). A31 cells are Balb/c murine 3T3 fibroblasts whose origin and growth properties have been described (Lu, K. et al., Molec. Cell. Biol. 9:3411-3417 (1989); Dimri, G. P et al., J. Biol. Chem. 269:16180-16186 (1994), herein incorporated by reference). Cells were transfected with 2 μg of expression vectors, reporters vectors (for transactivation) and the CMV-β-gal identification/normalization vector using Lipofectamine (Gibco-BRL), as described by Dimri, G. P et al. (J. Biol. Chem. 269:16180-16186 (1994), herein incorporated by reference), The vector backbone was added to the mixture as needed to equalize the amount of transfected DNA. Seventy-two hours later, the cells were lysed and assayed for chloramphenicol acetyl transferase (CAT) and β-galactosidase activity. Both DHFR and cdc2 were expressed by proliferating cells, largely due to E2F-mediated transcription that is dependent on E2F binding sites in the 5′ regulatory regions of these genes (Slansky, J. E. et al., Molec. Cell. Biol. 13:1610-1618 (1993); Dalton, S., EMBO J. 11:1797-1804 (1992)).
The SDI-1 expression vector, CMV-SDI-1, but not the control vector, suppressed CAT activity driven by either the DHFR or cdc2 promoter (Table 16). CMV-SDI-1 was maximally inhibitory at above 2 μg of DNA under the assay conditions used. CAT activity in Table 16 is reported in counts per minute, normalized to the β-galactosidase activity. At this concentration, CMV-SDI-1 inhibited the DHFR promoter, which contains two strong E2F binding sites (Slansky, J. E. et al., Molec. Cell. Biol. 13:1610-1618 (1993)), somewhat more strongly than the cdc2 promoter, which contains a single E2F binding site (Dalton, S., EMBO J. 11:1797-1804 (1992)) (50-70% inhibition vs 40-50% inhibition). This difference in sensitivity is consistent with the finding that the DHFR promoter is somewhat more sensitive than the cdc2 promoter to stimulation by E2F1, a component of E2F (Dimri, G. P et al., J. Biol. Chem. 269:16180-16186 (1994)). At the concentrations used here, CMV-SDI-1 inhibited DHFR-CAT and cdc2-CAT expression to approximately the same extent that it inhibited DNA replication.

Fibroblasts (L-929) = assay: GST-SDI-1 fusion protein, thymidine incorporation; format: cell-based, Murine; settings: 50 μg/ml
Experimental: As indicated above, SDI-1 has the capacity to suppress the proliferation of tumor cells. […] In the experiment, 5×10^3 cells were plated overnight at 37° C. (only for adherent cells) and then incubated with the SDI fusion protein. After 48 hours at 37° C., cells were pulsed with thymidine for 24 hours and then harvested. The results of this experiment are shown in Table 8; the thymidine incorporation by untreated cells was expressed as 100%. all determinations were made in quadruplicate.

c-fos promoter = assay: CAT reporter transcription assay, fos-CAT; format: cell-based; settings: SDI-1 2.0 μg
Experimental: as §1
In sharp contrast to the response of the DHFR and cdc2 promoters, CMV-SDI-1 had little or no effect on reporter activity driven by either the SV 40 early promoter (SV-CAT or the c-fos promoter (fos-CAT) (Table 16). Neither the SV40 early genes nor c-fos has been reported to be E2F-responsive.

C33A (HTB 31) = assay: DNA synthesis inhibition by SDI-1 in pRb-deficient cells; format: cell-based, human
Experimental: Because SDI-1 inhibits the protein kinases that phosphorylate pRb, and unphosphorylated pRb is believed to negatively regulate E2F activity (Nevins, J. R., Science 258:424-429 (1992)), pRb is presumed to be a central mediator of SDI-1's effects. Since A31 cells express a normal Rb gene, the ability of SDI-1 to inhibit E2F activity, and possibly growth, in tumor cells that lack a functional pRb was tested. […] C33A cells were obtained from the American Type Culture Collection (Rockville, Md.).
By contrast, C33A and A31 cells were equally sensitive to SDI-1 inhibition of E2F activity. Thus, CMV-SDI-1 reduced DHFR-, cdc2- and SV/E2F-driven CAT activity to approximately equal extents in C33A and A31 cells. As expected CMV-SDI-1 had no effect on SV/E2Fm-driven CAT activity in either cell line.

SDI-1: senescent cell derived inhibitor of DNA synthesis, 164 amino acid protein, SEQ ID NO:2
% Activity ([1]; SDI-1 0.2 μg, A31 cells): 97% | % Inhibition ([1]; SDI-1 0.2 μg, A31 cells): 4% | Normalized CAT Activity ([1]; SDI-1 0.2 μg, A31 cells): 9155 counts per minute | % Activity ([1]; SDI-1 1.0 μg): 87% | % Inhibition ([1]; SDI-1 1.0 μg): 13% | Normalized CAT Activity ([1]; SDI-1 1.0 μg): 8196 counts per minute | % Activity ([1]; SDI-1 2.0 μg): 28% | % Inhibition ([1]; SDI-1 2.0 μg): 72% | Normalized CAT Activity ([1]; SDI-1 2.0 μg): 2613 counts per minute | % Activity ([1]; SDI-1 4.0 μg): 19% | % Inhibition ([1]; SDI-1 4.0 μg): 81% | Normalized CAT Activity ([1]; SDI-1 4.0 μg): 1757 counts per minute | Relative Cell (% of Control) (Fibroblasts (L-929)): 4 ± 1 % of Control | % Activity (c-fos promoter): 96% | % Inhibition (c-fos promoter): 4% | Normalized CAT Activity (c-fos promoter): 16273 counts per minute | inhibition (antiproliferative effect) (C33A (HTB 31)): 40-50%
